Reference: patent publication US12728121B2, “Compositions and methods for treating idiopathic pulmonary fibrosis” (Seyltx, Inc., priority 2019, dated 2026)

Assays:
Format in all cases: in vivo, Mouse/C57BL/6
BLM-induced fibrosis [1] = test: Bleomycin (BLM)-induced lung fibrosis in mice: Gomori's Trichrome score of lung sections; conditions: for Trichrome score (average) / % reduction in fibrosis: day 21; for Trichrome score (average): BLM 2.5 U/kg intratracheal, p.o. once daily 14 days from day 7, mg/kg: Pirfenidone 300, Bromantane 20, Ifenoprodil 30, Radiprodil 30, Bemithyl 200, Dexamethasone 0.25, Repirinast 90, Normal 1.00, Vehicle 4.59; for Trichrome score response versus BLM-vehicle group (in words) / percent reduction in lung fibrosis in comparison to the BLM-vehicle group (in words): doses as Table 1, order: Dexamethasone and Repirinast, followed by Ifenprodil and Radiprodil; for % reduction in fibrosis: from Trichrome scores relative to vehicle and normal groups, doses as Table 1, p.o. once daily 14 days; for improvement in lung fibrosis, loss of body weight, Trichrome score and mortality as compared to BLM-vehicle (conclusion, in words): oral administration, Dexamethasone 0.25, Repirinast 90, Ifenprodil 30, Radiprodil 30 mg/kg
Procedure: (§1) The mouse species or strain was Mouse/C57BL/6, the mice being 8-10 week old males. Nine groups of 10 mice each were obtained from Charles River Laboratories. Each group was randomized based on body weight. Bleomycin (BLM) was obtained from Euroasias.
(§2) The mice were anesthetized with isoflurane/O2 mixture. Bleomycin (BLM) was then administered to the mice intratracheally (PennCentury)—single bolus, at 2.5 U/kg body weight in 50 μl sterile saline.
(§3) Seven days after the bleomycin is administered, and fibroblasts have generally proliferated, six of the nine groups of IT bleomycin challenged mice were be dosed orally (p.o.) once a day with Bromantane, Ifenoprodil, Radiprodil, Bemithyl, Dexamethasone, or Repirinast at specified amounts per kg of body weight (mg/kg) daily for 14 consecutive days. The amounts are set out in Table 1 below. The vehicle used was 0.5% carboxymethyl cellulose (CMC). Prifenidone was also prepared in 0.5% CMC and administrated orally once a day to one of the nine IT bleomycin challenged mice groups beginning for 14 consecutive days. Vehicle and no-BLM control groups received 0.5% CMC orally for 14 consecutive days.
On day 21 of the study, 4 hours after the last dose, the mice were sacrificed and plasma was collected and frozen for cytokine analysis (testing for IL-6, IL-12, TGFβ, IL-13 proteins, or fibrosis markers). Bronchoalveolar lavage fluid (BALF) was collected and frozen for optional cytokine analyses and cell counts pending the initial data. The lungs were then excised, weighed and fixed in formalin. Gomori's Trichrome stain, a histological stain, was used to determine collagen content.
Trichrome Score: A trichrome score measures the level of scarring to the lungs caused by the disease. The greater the trichrome score, the greater the scarring.
Formalin fixed lung samples were submitted to affiliated histopathology laboratory for histopathological analysis subjected Gomori's Trichrome stain, a histological stain, which was used to determine collagen content.
Each lung was divided into ten sections. All ten sections were stained and evaluated. A board certified veterinarian pathologist assessed the presence of lung fibrosis and severity score—The expression of collagen (associated with fibrosis) is determined from the ratio of the stained area versus the total area of the lung section.

BLM-induced fibrosis [2] = test: Bleomycin (BLM)-induced lung fibrosis in mice: mortality rate over 21 days; conditions: doses as Table 1; for Fatality Number: deaths/mice per group over 21 days, Vehicle 2/10; for percent survival (in words): order: Dexamethasone and Repirinast, followed by Ifenprodil and Radiprodil; for Percent Fatality: over 21 days, Vehicle 20%
Procedure: as §1, §2, §3
Mortality Rate: the mortality rate in each group was also observed over 21 days.

[3] = Bleomycin (BLM)-induced lung fibrosis in mice: body weight over 21 days; conditions: for Percent Change in Body Weight / Body Weight: doses as Table 1; for Body Weight: group mean; for changes in body weight as compared to the BLM-vehicle group (in words): doses as Table 1, p.o. once daily
Procedure: as §1, §2, §3
Body Weight: The body weights were measured over 21 days using a laboratory balance.

In the case of `Cc1ccc2c([nH]c(=O)c3c(=O)cc(C(=O)OCCC(C)C)oc32)c1C` [Repirinast, Isopentyl 7,8-dimethyl-4,5-dioxo-5,6-dihydro-4H-pyrano[3,2-c]quinoline-2-carboxylate], the “Trichrome score (average)” value (BLM-induced fibrosis [1]) is reported as 3.16, the “Trichrome score response versus BLM-vehicle group (in words)” value (BLM-induced fibrosis [1]) is reported as “response was better” and the “percent reduction in lung fibrosis in comparison to the BLM-vehicle group (in words)” value (BLM-induced fibrosis [1]) is reported as “higher”. For the same molecule, the “% reduction in fibrosis” value (BLM-induced fibrosis [1]) was 39.8%, the “improvement in lung fibrosis, loss of body weight, Trichrome score and mortality as compared to BLM-vehicle (conclusion, in words)” value (BLM-induced fibrosis [1]) was “showed improvement” and the “Fatality Number” value (BLM-induced fibrosis [2]) was 1/10. The “percent survival (in words)” value (BLM-induced fibrosis [2]) was “higher”, the “Percent Fatality” value (BLM-induced fibrosis [2]) was 10% and the “Percent Change in Body Weight” value ([3]; 7-Nov) was 0.0%. For the same molecule, the “Body Weight” value ([3]; 7-Nov) was 23.5 g, the “Percent Change in Body Weight” value ([3]; 8-Nov) was 0.2% and the “Body Weight” value ([3]; 8-Nov) was 23.7 g. The “Percent Change in Body Weight” value ([3]; 9-Nov) was −0.3%, the “Body Weight” value ([3]; 9-Nov) was 23.2 g and the “Percent Change in Body Weight” value ([3]; 12-Nov) was −2.0%. The “Body Weight” value ([3]; 12-Nov) was 21.5 g, the “Percent Change in Body Weight” value ([3]; 14-Nov) was −1.8% and the “Body Weight” value ([3]; 14-Nov) was 21.8 g. For the same molecule, the “Percent Change in Body Weight” value ([3]; 16-Nov) was −2.5%, the “Body Weight” value ([3]; 16-Nov) was 21.1 g and the “Percent Change in Body Weight” value ([3]; 20-Nov) was −2.2%. The “Body Weight” value ([3]; 20-Nov) was 21.4 g, the “Percent Change in Body Weight” value ([3]; 22-Nov) was −1.3% and the “Body Weight” value ([3]; 22-Nov) was 22.3 g. For the same molecule, the “Percent Change in Body Weight” value ([3]; 26-Nov) was −1.6%, the “Body Weight” value ([3]; 26-Nov) was 21.9 g and the “Percent Change in Body Weight” value ([3]; 28-Nov) was −1.3%. The “Body Weight” value ([3]; 28-Nov) was 22.3 g and the “changes in body weight as compared to the BLM-vehicle group (in words)” value (shortened to “changes in body weight”) [3] was “No significant differences”.

For `CCSc1nc2ccccc2[nH]1` [Bemithyl, 2-Ethylsulfanyl-1H-benzoimidazole], the “Trichrome score (average)” value (BLM-induced fibrosis [1]) was 4.14, the “% reduction in fibrosis” value (BLM-induced fibrosis [1]) was 12.5% and the “Fatality Number” value (BLM-induced fibrosis [2]) was 1/10. The “Percent Fatality” value (BLM-induced fibrosis [2]) was 10%, the “Percent Change in Body Weight” value ([3]; 7-Nov) was 0.0% and the “Body Weight” value ([3]; 7-Nov) was 24.6 g. The “Percent Change in Body Weight” value ([3]; 8-Nov) was 0.0%, the “Body Weight” value ([3]; 8-Nov) was 24.7 g and the “Percent Change in Body Weight” value ([3]; 9-Nov) was −0.6%. The “Body Weight” value ([3]; 9-Nov) was 24.1 g, the “Percent Change in Body Weight” value ([3]; 12-Nov) was −1.6% and the “Body Weight” value ([3]; 12-Nov) was 23.0 g. The “Percent Change in Body Weight” value ([3]; 14-Nov) was −1.1%, the “Body Weight” value ([3]; 14-Nov) was 23.5 g and the “Percent Change in Body Weight” value ([3]; 16-Nov) was −1.7%. For the same molecule, the “Body Weight” value ([3]; 16-Nov) was 22.9 g, the “Percent Change in Body Weight” value ([3]; 20-Nov) was −1.6% and the “Body Weight” value ([3]; 20-Nov) was 23.1 g. For the same molecule, the “Percent Change in Body Weight” value ([3]; 22-Nov) was −0.6%, the “Body Weight” value ([3]; 22-Nov) was 24.0 g and the “Percent Change in Body Weight” value ([3]; 26-Nov) was −0.9%. For the same molecule, the “Body Weight” value ([3]; 26-Nov) was 23.7 g, the “Percent Change in Body Weight” value ([3]; 28-Nov) was −0.3% and the “Body Weight” value ([3]; 28-Nov) was 24.3 g. For the same molecule, the “changes in body weight” value [3] was “showed improvement beginning on Day 5”.

With `O=C(Nc1ccc2[nH]c(=O)oc2c1)C(=O)N1CCC(Cc2ccc(F)cc2)CC1` [Radiprodil, 2-[4-[(4-fluorophenyl)methyl]piperidin-1-yl]-2-oxo-N-(2-oxo-3H-1,3-benzoxazol-6-yl)acetamide] the “Trichrome score (average)” value (BLM-induced fibrosis [1]) was 3.45, the “Trichrome score response versus BLM-vehicle group (in words)” value (BLM-induced fibrosis [1]) was “response was better” and the “percent reduction in lung fibrosis in comparison to the BLM-vehicle group (in words)” value (BLM-induced fibrosis [1]) was “higher”. For the same molecule, the “% reduction in fibrosis” value (BLM-induced fibrosis [1]) was 31.8%, the “improvement in lung fibrosis, loss of body weight, Trichrome score and mortality as compared to BLM-vehicle (conclusion, in words)” value (BLM-induced fibrosis [1]) was “showed improvement” and the “Fatality Number” value (BLM-induced fibrosis [2]) was 2/10. The “percent survival (in words)” value (BLM-induced fibrosis [2]) was “higher”, the “Percent Fatality” value (BLM-induced fibrosis [2]) was 20% and the “Percent Change in Body Weight” value ([3]; 7-Nov) was 0.0%. For the same molecule, the “Body Weight” value ([3]; 7-Nov) was 23.6 g, the “Percent Change in Body Weight” value ([3]; 8-Nov) was 0.0% and the “Body Weight” value ([3]; 8-Nov) was 23.6 g. For the same molecule, the “Percent Change in Body Weight” value ([3]; 9-Nov) was −0.4%, the “Body Weight” value ([3]; 9-Nov) was 23.2 g and the “Percent Change in Body Weight” value ([3]; 12-Nov) was −2.3%. For the same molecule, the “Body Weight” value ([3]; 12-Nov) was 21.3 g, the “Percent Change in Body Weight” value ([3]; 14-Nov) was −1.8% and the “Body Weight” value ([3]; 14-Nov) was 21.8 g. The “Percent Change in Body Weight” value ([3]; 16-Nov) was −1.0%, the “Body Weight” value ([3]; 16-Nov) was 22.6 g and the “Percent Change in Body Weight” value ([3]; 20-Nov) was −1.2%. For the same molecule, the “Body Weight” value ([3]; 20-Nov) was 22.4 g, the “Percent Change in Body Weight” value ([3]; 22-Nov) was −0.3% and the “Body Weight” value ([3]; 22-Nov) was 23.3 g. For the same molecule, the “Percent Change in Body Weight” value ([3]; 26-Nov) was 0.3%, the “Body Weight” value ([3]; 26-Nov) was 24.0 g and the “Percent Change in Body Weight” value ([3]; 28-Nov) was 0.4%. The “Body Weight” value ([3]; 28-Nov) was 24.0 g and the “changes in body weight” value [3] was “showed improvement beginning on Day 5”.
